ChEMBL document CHEMBL1136071, “Synthesis and biological evaluation of hydroxamate-Based inhibitors of glutamate carboxypeptidase II” (Bioorg Med Chem Lett, 2003)

target: Glutamate carboxypeptidase 2 (Homo sapiens, UniProt Q04609); assay: Inhibition of Glutamate carboxypeptidase II
Sequence (Q04609 whole entry): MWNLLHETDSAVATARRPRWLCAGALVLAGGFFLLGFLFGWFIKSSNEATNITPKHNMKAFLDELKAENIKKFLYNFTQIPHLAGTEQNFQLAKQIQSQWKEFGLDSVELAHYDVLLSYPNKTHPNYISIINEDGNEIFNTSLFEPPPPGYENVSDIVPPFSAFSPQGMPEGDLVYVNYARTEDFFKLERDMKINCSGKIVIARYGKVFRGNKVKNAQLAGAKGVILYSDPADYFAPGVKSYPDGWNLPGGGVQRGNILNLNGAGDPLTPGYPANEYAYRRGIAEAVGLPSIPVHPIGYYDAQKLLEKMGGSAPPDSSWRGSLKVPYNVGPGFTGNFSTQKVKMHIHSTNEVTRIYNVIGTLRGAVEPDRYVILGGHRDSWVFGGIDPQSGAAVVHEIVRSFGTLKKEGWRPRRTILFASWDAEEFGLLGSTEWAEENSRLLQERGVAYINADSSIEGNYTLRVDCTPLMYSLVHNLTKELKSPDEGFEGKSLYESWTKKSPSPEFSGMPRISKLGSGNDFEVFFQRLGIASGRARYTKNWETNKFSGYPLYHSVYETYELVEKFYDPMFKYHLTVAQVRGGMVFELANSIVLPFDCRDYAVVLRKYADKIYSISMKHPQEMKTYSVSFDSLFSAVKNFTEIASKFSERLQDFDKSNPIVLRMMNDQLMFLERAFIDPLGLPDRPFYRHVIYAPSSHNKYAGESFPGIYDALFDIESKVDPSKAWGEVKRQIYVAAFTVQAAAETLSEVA

| Compound | IC50 [µM] |
| --- | --- |
| O=C(O)CCC(CC(=O)O)C(=O)O (stereo not drawn) | 20 |
| O=C(O)CCC(CP(=O)(O)Cc1c(F)c(F)c(F)c(F)c1F)C(=O)O (stereo not drawn) | 0.082 |
| N[C@@H](CCC(=O)NO)C(=O)O [GLUTAMINE HYDROXAMATE] | > 100 |
| O=C(O)CCC(CCC(=O)NO)C(=O)O (stereo not drawn) | 1.2 |
| CC(=O)N[C@H](CC(=O)O)C(=O)NO | > 100 |
| O=C(O)CCC(=O)NO | 43 |
| N[C@@H](CC(=O)NO)C(=O)O | > 100 |
| O=C(O)CCC(CCCC(=O)NO)C(=O)O (stereo not drawn) | 0.94 |
| N[C@H](CC(=O)NO)C(=O)O | > 100 |
| CC(=O)N[C@@H](CC(=O)O)C(=O)NO | > 100 |
| O=C(O)CCC(CC(=O)NO)C(=O)O (stereo not drawn) | 0.22 |

target: Bacterial leucyl aminopeptidase (Vibrio proteolyticus, UniProt Q01693); assay: Inhibition of metalloprotease from family M28, Aeromonas proteolytica aminopeptidase
Sequence (Q01693 whole entry): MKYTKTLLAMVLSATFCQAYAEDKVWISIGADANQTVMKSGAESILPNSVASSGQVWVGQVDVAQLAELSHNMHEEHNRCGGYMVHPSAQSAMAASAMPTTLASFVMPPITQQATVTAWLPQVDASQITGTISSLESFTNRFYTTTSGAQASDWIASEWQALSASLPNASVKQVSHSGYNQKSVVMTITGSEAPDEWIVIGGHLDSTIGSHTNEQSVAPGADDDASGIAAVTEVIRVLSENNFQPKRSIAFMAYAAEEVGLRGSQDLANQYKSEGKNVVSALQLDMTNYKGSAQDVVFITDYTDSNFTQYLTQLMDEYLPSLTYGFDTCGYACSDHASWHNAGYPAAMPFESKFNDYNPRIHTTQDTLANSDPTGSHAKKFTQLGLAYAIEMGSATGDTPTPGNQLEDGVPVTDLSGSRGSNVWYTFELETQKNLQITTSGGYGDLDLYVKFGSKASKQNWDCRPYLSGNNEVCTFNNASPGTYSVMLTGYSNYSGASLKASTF

| Compound | Ki [µM] |
| --- | --- |
| CC(C)C[C@H](N)C(=O)NO | 0.35 |
| CC(C)C[C@@H](N)C(=O)NO | 0.002 |
